What was measured:
Assay in all cases: relative viability (nuclei count vs DMSO), 5 days (fraction); higher = more cells survive
[1] = tested on: NCI-H2009
How it was run: (§1)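 Relative viability divides the nuclei count in treated wells by that in vehicle wells. Lung cancer cell lines were seeded in 1536-well plates, dosed by pin tool the next day, and fixed and stained after 5 days in one step with final 0.05% Triton X-100, 1% formaldehyde and 1 ug/ml Hoechst. Dosing was a single drug or a fixed anchor-drug dose plus five library-drug doses (not always all listed) in √10 steps, and values are medians of duplicate plates imaged at 4×.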

[2] = tested on: NCI-H838
How it was run: as §1

[3] = tested on: HCC-78
How it was run: as §1

[4] = tested on: PC-3 [JPC-3]
How it was run: as §1

[5] = tested on: NCI-H2405
How it was run: as §1

[6] = tested on: HCC-366
How it was run: as §1

[7] = tested on: SW 1573
How it was run: as §1

[8] = tested on: NCI-H1355
How it was run: as §1

[9] = tested on: NCI-H520
How it was run: as §1

[10] = tested on: NCI-H2126
How it was run: as §1

[11] = tested on: UMC-11
How it was run: as §1

[12] = tested on: NCI-H1437
How it was run: as §1

[13] = tested on: LU99A
How it was run: as §1

[14] = tested on: HARA
How it was run: as §1

[15] = tested on: NCI-H2347
How it was run: as §1

[16] = tested on: NCI-H1734
How it was run: as §1

[17] = tested on: HCC-44
How it was run: as §1

[18] = tested on: NCI-H358
How it was run: as §1

[19] = tested on: BEN
How it was run: as §1

[20] = tested on: NCI-H727
How it was run: as §1

[21] = tested on: 201T
How it was run: as §1

COCC1(CO)C(=O)C2CCN1CC2 (stereo not drawn) [PRIMA-1MET] + CS(=O)(=O)CCNCc1ccc(-c2ccc3ncnc(Nc4ccc(OCc5cccc(F)c5)c(Cl)c4)c3c2)o1 [Lapatinib] (partner 2 µM)
relative viability ([1]; first compound 0.2 µM): 0.66 | relative viability ([1]; first compound 0.6325 µM): 0.844 | relative viability ([1]; first compound 2 µM): 0.669 | relative viability ([1]; first compound 6.325 µM): 0.905 | relative viability ([1]; first compound 20 µM): 0.0051 | relative viability ([2]; first compound 0.2 µM): 1.23 | relative viability ([2]; first compound 0.6325 µM): 0.913 | relative viability ([2]; first compound 2 µM): 0.801 | relative viability ([2]; first compound 6.325 µM): 1.06 | relative viability ([2]; first compound 20 µM): 0.197 | relative viability ([3]; first compound 0.2 µM): 0.984 | relative viability ([3]; first compound 0.6325 µM): 0.539 | relative viability ([3]; first compound 6.325 µM): 0.78 | relative viability ([3]; first compound 20 µM): 0.686 | relative viability ([4]; first compound 0.2 µM): 0.544 | relative viability ([4]; first compound 0.6325 µM): 0.392 | relative viability ([4]; first compound 2 µM): 0.456 | relative viability ([4]; first compound 6.325 µM): 0.447 | relative viability ([4]; first compound 20 µM): 0.478 | relative viability ([5]; first compound 0.2 µM): 0.77 | relative viability ([5]; first compound 0.6325 µM): 1.17 | relative viability ([5]; first compound 6.325 µM): 0.85 | relative viability ([5]; first compound 20 µM): 0.0796 | relative viability ([6]; first compound 0.2 µM): 1.28 | relative viability ([6]; first compound 0.6325 µM): 0.856 | relative viability ([6]; first compound 6.325 µM): 0.915 | relative viability ([6]; first compound 20 µM): 0.016 | relative viability ([7]; first compound 0.2 µM): 1.26 | relative viability ([7]; first compound 0.6325 µM): 1.04 | relative viability ([7]; first compound 2 µM): 0.999 | relative viability ([7]; first compound 6.325 µM): 0.691 | relative viability ([7]; first compound 20 µM): 0.0423 | relative viability ([8]; first compound 0.2 µM): 1.12 | relative viability ([8]; first compound 0.6325 µM): 0.933 | relative viability ([8]; first compound 2 µM): 0.893 | relative viability ([8]; first compound 6.325 µM): 1 | relative viability ([8]; first compound 20 µM): 0.998 | relative viability ([9]; first compound 0.2 µM): 0.792 | relative viability ([9]; first compound 0.6325 µM): 0.987 | relative viability ([9]; first compound 6.325 µM): 0.828 | relative viability ([9]; first compound 20 µM): 0.0834 | relative viability ([10]; first compound 0.2 µM): 0.875 | relative viability ([10]; first compound 0.6325 µM): 0.757 | relative viability ([10]; first compound 2 µM): 0.733 | relative viability ([10]; first compound 6.325 µM): 0.815 | relative viability ([10]; first compound 20 µM): 0.773 | relative viability ([11]; first compound 0.2 µM): 1.12 | relative viability ([11]; first compound 0.6325 µM): 0.898 | relative viability ([11]; first compound 2 µM): 0.755 | relative viability ([11]; first compound 6.325 µM): 0.961 | relative viability ([11]; first compound 20 µM): 0.991 | relative viability ([12]; first compound 0.2 µM): 0.936 | relative viability ([12]; first compound 0.6325 µM): 0.703 | relative viability ([12]; first compound 2 µM): 0.765 | relative viability ([12]; first compound 6.325 µM): 0.82 | relative viability ([12]; first compound 20 µM): 0.694 | relative viability ([13]; first compound 0.2 µM): 1.1 | relative viability ([13]; first compound 0.6325 µM): 0.905 | relative viability ([13]; first compound 2 µM): 0.955 | relative viability ([13]; first compound 6.325 µM): 0.91 | relative viability ([13]; first compound 20 µM): 0.0802 | relative viability ([14]; first compound 0.2 µM): 0.782 | relative viability ([14]; first compound 0.6325 µM): 0.649 | relative viability ([14]; first compound 6.325 µM): 0.804 | relative viability ([14]; first compound 20 µM): 0.706 | relative viability ([15]; first compound 0.2 µM): 0.939 | relative viability ([15]; first compound 0.6325 µM): 0.856 | relative viability ([15]; first compound 2 µM): 0.57 | relative viability ([15]; first compound 6.325 µM): 0.918 | relative viability ([15]; first compound 20 µM): 1.06 | relative viability ([16]; first compound 0.2 µM): 1.43 | relative viability ([16]; first compound 0.6325 µM): 0.98 | relative viability ([16]; first compound 2 µM): 0.857 | relative viability ([16]; first compound 6.325 µM): 1.07 | relative viability ([16]; first compound 20 µM): 0.591 | relative viability ([17]; first compound 0.2 µM): 1.02 | relative viability ([17]; first compound 0.6325 µM): 0.775 | relative viability ([17]; first compound 2 µM): 0.99 | relative viability ([17]; first compound 6.325 µM): 1.01 | relative viability ([17]; first compound 20 µM): 0.994 | relative viability ([18]; first compound 0.2 µM): 0.486 | relative viability ([18]; first compound 0.6325 µM): 0.431 | relative viability ([18]; first compound 6.325 µM): 0.471 | relative viability ([18]; first compound 20 µM): 0.0399 | relative viability ([19]; first compound 0.2 µM): 0.786 | relative viability ([19]; first compound 0.6325 µM): 0.774 | relative viability ([19]; first compound 6.325 µM): 0.82 | relative viability ([19]; first compound 20 µM): 0.687 | relative viability ([20]; first compound 0.2 µM): 0.559 | relative viability ([20]; first compound 0.6325 µM): 0.769 | relative viability ([20]; first compound 2 µM): 0.503 | relative viability ([20]; first compound 6.325 µM): 0.624 | relative viability ([20]; first compound 20 µM): 0.113 | relative viability ([21]; first compound 0.2 µM): 1.15 | relative viability ([21]; first compound 0.6325 µM): 0.695 | relative viability ([21]; first compound 2 µM): 0.834 | relative viability ([21]; first compound 6.325 µM): 1.07 | relative viability ([21]; first compound 20 µM): 1.01
